Literature values, collected in patent publication US10695734B2, “Microcapsule comprising a polyester-urethane shell and a hydrophilic core material” (BASF SE, priority 2015, dated 2020).
Where a name gives a salt, the structure may show the parent alone.

Details: at 20° C.

| SMILES | water solubility [mg/mL] |
| --- | --- |
| COc1c(Cl)ccc(Cl)c1C(=O)O [dicamba sodium salt] | > 100 |
| O=C(O)CNCP(=O)(O)O [glyphosate potassium salt] | > 500 |
